{"source": "ChEMBL document CHEMBL2331400", "about": "“Structure-based design and evaluation of naphthalene diimide G-quadruplex ligands as telomere targeting agents in pancreatic cancer cells” (J Med Chem, 2013)", "key": {"[1]": {"test_system": "unidentified", "test": "Stabilization of duplex DNA T-loop (unknown origin) 5'-FAM-dTATAGCTATA-HEG-TATAGCTATA-TAMRA-3' assessed as melting temperature at 1 uM by FRET assay"}, "[2]": {"test_system": "MIA PaCa-2", "test": "Upregulation of PRKCB gene expression in human MIAPaCa2 cells at 20 to 80 nM after 24 hrs by qPCR analysis relative to solvent-treated control", "assay_type": "functional"}, "[3]": {"test_system": "MIA PaCa-2", "test": "Upregulation of GADD45A gene expression in human MIAPaCa2 cells at cytotoxic concentration after 24 hrs by qPCR analysis", "assay_type": "functional, cell-based"}, "[4]": {"test_system": "MIA PaCa-2", "test": "Downregulation of PPM1D gene expression in human MIAPaCa2 cells at subcytotoxic concentration after 24 hrs by qPCR analysis", "assay_type": "functional, cell-based"}, "[5]": {"test_system": "MIA PaCa-2", "test": "Inhibition of telomerase activity in human MIAPaCa2 cells assessed as telomere elongation up to 10 uM after 7 days by TRAP-LIG assay", "assay_type": "cell-based"}, "[6]": {"organism": "Homo sapiens", "test": "Stabilization of human telomeric G-quadruplex DNA sequence 5'-FAM-d(GGG[TTAGGG]3)-TAMRA-3' assessed as melting temperature at 1 uM by FRET assay"}, "[7]": {"test_system": "MIA PaCa-2", "test": "Downregulation of PTGES3 gene expression in human MIAPaCa2 cells at 20 to 80 nM after 24 hrs by qPCR analysis relative to solvent-treated control", "assay_type": "functional, cell-based"}, "[8]": {"test_system": "MIA PaCa-2", "test": "Downregulation of […] gene expression in human MIAPaCa2 cells at 20 to 80 nM after 24 hrs by qPCR analysis relative to solvent-treated control", "assay_type": "functional"}, "[9]": {"test_system": "MIA PaCa-2", "test": "Downregulation of PPP1R15A gene expression in human MIAPaCa2 cells at subcytotoxic concentration after 24 hrs by qPCR analysis", "assay_type": "functional, cell-based"}, "[10]": {"test_system": "MIA PaCa-2", "test": "Upregulation of DDIT3 gene expression in human MIAPaCa2 cells at cytotoxic concentration after 24 hrs by qPCR analysis", "assay_type": "functional, cell-based"}, "[11]": {"test_system": "MIA PaCa-2", "test": "Induction of gamma-H2AX gene expression in human MIAPaCa2 cells by qPCR analysis", "assay_type": "functional, cell-based"}, "[12]": {"test_system": "MIA PaCa-2", "test": "Cytotoxicity against human MIAPaCa2 cells assessed as growth inhibition at 5 to 40 nM after 144 hrs by microscopic analysis", "assay_type": "functional, cell-based"}, "[13]": {"test_system": "MIA PaCa-2", "test": "Downregulation of POT1 gene expression in human MIAPaCa2 cells at 20 to 80 nM after 24 hrs by qPCR analysis relative to solvent-treated control", "assay_type": "functional, cell-based"}, "[14]": {"test_system": "MIA PaCa-2", "test": "Upregulation of PPARG gene expression in human MIAPaCa2 cells at 20 to 80 nM after 24 hrs by qPCR analysis relative to solvent-treated control", "assay_type": "functional"}, "[15]": {"test_system": "MIA PaCa-2", "test": "Downregulation of DDIT3 gene expression in human MIAPaCa2 cells at subcytotoxic concentration after 24 hrs by qPCR analysis", "assay_type": "functional, cell-based"}, "[16]": {"test_system": "MIA PaCa-2", "test": "Induction of senescence in human MIAPaCa2 cells at 3.3 to 6.6 nM after 7 days by beta-galactosidase assay relative to vehicle-treated control", "assay_type": "functional"}, "[17]": {"test_system": "MIA PaCa-2", "test": "Induction of ATR/[…] gene expression in human MIAPaCa2 cells by qPCR analysis", "assay_type": "functional, cell-based"}, "[18]": {"test_system": "MIA PaCa-2", "test": "Upregulation of CDKN1A gene expression in human MIAPaCa2 cells at cytotoxic concentration after 24 hrs by qPCR analysis", "assay_type": "functional, cell-based"}, "[19]": {"test_system": "MIA PaCa-2", "test": "Cytotoxicity against human MIAPaCa2 cells assessed as growth inhibition at 80 nM after 72 hrs by microscopic analysis", "assay_type": "functional, cell-based"}, "[20]": {"test_system": "MIA PaCa-2", "test": "Upregulation of GADD45G gene expression in human MIAPaCa2 cells at cytotoxic concentration after 24 hrs by qPCR analysis", "assay_type": "functional, cell-based"}, "[21]": {"test_system": "MIA PaCa-2", "test": "Upregulation of MYC gene expression in human MIAPaCa2 cells at 20 to 80 nM by qPCR analysis relative to solvent-treated control", "assay_type": "functional"}, "[22]": {"test_system": "MIA PaCa-2", "test": "Downregulation of PARP1 gene expression in human MIAPaCa2 cells at 20 to 160 nM after 24 hrs by qPCR analysis relative to solvent-treated control", "assay_type": "functional, cell-based"}, "[23]": {"test_system": "MIA PaCa-2", "test": "Downregulation of UNG gene expression in human MIAPaCa2 cells at 160 nM after 24 hrs by qPCR analysis", "assay_type": "functional, cell-based"}, "[24]": {"test_system": "MIA PaCa-2", "test": "Downregulation of HUS1 gene expression in human MIAPaCa2 cells at 20 to 160 nM after 24 hrs by qPCR analysis relative to solvent-treated control", "assay_type": "functional, cell-based"}, "[25]": {"test_system": "MIA PaCa-2", "test": "Cytotoxicity against human MIAPaCa2 cells assessed as growth inhibition at 5 to 40 nM up to 96 hrs by microscopic analysis", "assay_type": "functional, cell-based"}, "[26]": {"test_system": "MIA PaCa-2", "test": "Upregulation of TP73 gene expression in human MIAPaCa2 cells at sublethal concentration after 24 hrs by qPCR analysis", "assay_type": "functional, cell-based"}, "[27]": {"test_system": "MCF7", "test": "Cytotoxicity against human MCF7 cells assessed as growth inhibition after 96 hrs by SRB assay", "assay_type": "functional, cell-based", "conditions": "MCF7, 96 h"}, "[28]": {"test_system": "unidentified", "test": "Stabilization of HSP90b promoter sequence 5'-FAM-d(GGGCGGGCCAAAGGGAAGGGG)-TAMRA-3' (unknown origin) assessed as melting temperature at 1 uM by FRET assay"}, "[29]": {"test_system": "MIA PaCa-2", "test": "Downregulation of SLX4 gene expression in human MIAPaCa2 cells at 20 to 80 nM after 24 hrs by qPCR analysis relative to solvent-treated control", "assay_type": "functional"}, "[30]": {"test_system": "MIA PaCa-2", "test": "Downregulation of RASSF1 gene expression in human MIAPaCa2 cells at 20 to 80 nM after 24 hrs by qPCR analysis relative to solvent-treated control", "assay_type": "functional"}, "[31]": {"test_system": "MIA PaCa-2", "test": "Downregulation of RAD50 gene expression in human MIAPaCa2 cells at 20 to 160 nM after 24 hrs by qPCR analysis relative to solvent-treated control", "assay_type": "functional, cell-based"}, "[32]": {"test_system": "MIA PaCa-2", "test": "Downregulation of NBN gene expression in human MIAPaCa2 cells at 20 to 160 nM after 24 hrs by qPCR analysis relative to solvent-treated control", "assay_type": "functional, cell-based"}, "[33]": {"test": "Cytotoxicity against human RCC4 cells assessed as growth inhibition after 96 hrs by SRB assay", "assay_type": "functional, cell-based", "conditions": "RCC4, 96 h"}, "[34]": {"test_system": "MIA PaCa-2", "test": "Upregulation of PPM1D gene expression in human MIAPaCa2 cells at cytotoxic concentration after 24 hrs by qPCR analysis", "assay_type": "functional, cell-based"}, "[35]": {"test_system": "MIA PaCa-2", "test": "Cytotoxicity against human MIAPaCa2 cells assessed as growth inhibition at 160 nM after 72 hrs by microscopic analysis", "assay_type": "functional, cell-based"}, "[36]": {"test_system": "A549", "test": "Cytotoxicity against human A549 cells assessed as growth inhibition after 96 hrs by SRB assay", "assay_type": "functional, cell-based", "conditions": "A549, 96 h"}, "[37]": {"test_system": "MIA PaCa-2", "test": "Downregulation of NTHL1 gene expression in human MIAPaCa2 cells at 160 nM after 24 hrs by qPCR analysis", "assay_type": "functional, cell-based"}, "[38]": {"test_system": "MIA PaCa-2", "test": "Upregulation of NHP2 gene expression in human MIAPaCa2 cells at 20 to 80 nM after 24 hrs by qPCR analysis relative to solvent-treated control", "assay_type": "functional"}, "[39]": {"test_system": "MIA PaCa-2", "test": "Downregulation of GADD45A gene expression in human MIAPaCa2 cells at subcytotoxic concentration after 24 hrs by qPCR analysis", "assay_type": "functional, cell-based"}, "[40]": {"test_system": "WI-38", "test": "Cytotoxicity against human WI38 cells assessed as growth inhibition after 96 hrs by SRB assay", "assay_type": "cell-based", "conditions": "WI-38, 96 h"}, "[41]": {"test_system": "MIA PaCa-2", "test": "Downregulation of TP73 gene expression in human MIAPaCa2 cells at 160 nM after 24 hrs by qPCR analysis", "assay_type": "functional, cell-based"}}, "note": "Calls of active or inactive are those of the source. The calls are words filed in the database; no cut-off is given here."}
{"smiles": "CN1CCN(CCCNc2cc3c4c(c(NCCCN5CCN(C)CC5)cc5c4c2C(=O)N(CCCN2CCOCC2)C5=O)C(=O)N(CCCN2CCOCC2)C3=O)CC1", "values": [{"measurement": "ΔTm", "setting": "[1]", "result": 4.9, "unit": "°C"}, {"measurement": "fold change (FC)", "setting": "[2]", "result": ">2"}, {"measurement": "Activity", "setting": "[3]", "result": "Active"}, {"measurement": "Activity", "setting": "[4]", "result": "inactive"}, {"measurement": "inhibition", "setting": "[5]", "result": "inactive"}, {"measurement": "ΔTm", "setting": "[6]", "result": 26.6, "unit": "°C"}, {"measurement": "Activity", "setting": "[7]", "result": "Active"}, {"measurement": "fold change (FC)", "setting": "[8]", "result": ">2"}, {"measurement": "Activity", "setting": "[9]", "result": "inactive"}, {"measurement": "Activity", "setting": "[10]", "result": "Active"}, {"measurement": "Activity", "setting": "[11]", "result": "Active"}, {"measurement": "growth inhibition (GI)", "setting": "[12]", "result": "inactive"}, {"measurement": "Activity", "setting": "[13]", "result": "Active"}, {"measurement": "fold change (FC)", "setting": "[14]", "result": ">2"}, {"measurement": "Activity", "setting": "[15]", "result": "inactive"}, {"measurement": "Activity", "setting": "[16]", "result": 50, "unit": "%"}, {"measurement": "Activity", "setting": "[17]", "result": "inactive"}, {"measurement": "Activity", "setting": "[18]", "result": "Active"}, {"measurement": "growth inhibition (GI)", "setting": "[19]", "result": "inactive"}, {"measurement": "Activity", "setting": "[20]", "result": "Active"}, {"measurement": "fold change (FC)", "setting": "[21]", "result": ">2"}, {"measurement": "Activity", "setting": "[22]", "result": "Active"}, {"measurement": "Activity", "setting": "[23]", "result": "Active"}, {"measurement": "Activity", "setting": "[24]", "result": "Active"}, {"measurement": "growth inhibition (GI)", "setting": "[25]", "result": "Active"}, {"measurement": "Activity", "setting": "[26]", "result": "inactive"}, {"measurement": "IC50", "setting": "[27]", "result": 70, "unit": "nM"}, {"measurement": "ΔTm", "setting": "[28]", "result": 28.6, "unit": "°C"}, {"measurement": "fold change (FC)", "setting": "[29]", "result": ">2"}, {"measurement": "fold change (FC)", "setting": "[30]", "result": ">2"}, {"measurement": "Activity", "setting": "[31]", "result": "Active"}, {"measurement": "Activity", "setting": "[32]", "result": "Active"}, {"measurement": "IC50", "setting": "[33]", "result": 560, "unit": "nM"}, {"measurement": "Activity", "setting": "[34]", "result": "Active"}, {"measurement": "growth inhibition (GI)", "setting": "[35]", "result": "Active"}, {"measurement": "IC50", "setting": "[36]", "result": "< 10", "unit": "nM"}, {"measurement": "Activity", "setting": "[37]", "result": "Active"}, {"measurement": "fold change (FC)", "setting": "[38]", "result": ">2"}, {"measurement": "Activity", "setting": "[39]", "result": "inactive"}, {"measurement": "IC50", "setting": "[40]", "result": 230, "unit": "nM"}, {"measurement": "Activity", "setting": "[41]", "result": "Active"}]}
